The numbers were not newly measured in PMC2967214 (Journal of the American Chemical Society, 2010), which cites them from elsewhere.

The conditions of data set [1]: cited from earlier work.
For data set [2] the following is noted: 25°C, 20 MHz; cited from earlier work.

On to `O=C(O)CN1CCN(CC(=O)O)CCN(CC(=O)O)CCN(CC(=O)O)CC1` [DOTA], for which, in data set [1], the “thermodynamic and kinetic stability of Gd3+ complex” value is “high thermodynamic and kinetic stability”.

For Gadomer 17, the r1 relaxivity in data set [2] is 16.5 mM⁻¹ s⁻¹.
